Source: publication PMC10272180, “Ancient medicinal plant rosemary contains a highly efficacious and isoform-selective KCNQ potassium channel opener” (Communications Biology, 2023)

Assays:
KCNQ2/3 = molecular target: T1, KCNQ2/3 (Homo sapiens, UniProt O43525+O43526); experiment: TEVC of KCNQ2/3 heteromers expressed in Xenopus laevis oocytes; type: cell-based; conditions: 100 µM
T1 construct: expressed in transfected cells; host or cells: Xenopus laevis oocytes co-injected with cRNAs
From the text: We generated cRNA transcripts encoding human KCNQ1, 2, 3, and 5 (wild-type and mutant) by in vitro transcription using the mMessage mMachine kit (Thermo Fisher Scientific, Waltham, MA, USA) according to manufacturer’s instructions, after vector linearization, from cDNA sub-cloned into expression vectors (pTLNx and pXOOM) incorporating Xenopus laevis β-globin 5’ and 3’ UTRs flanking the coding region to enhance translation and cRNA stability. Mutant KCNQ cDNAs were generated by Genscript (Piscataway, NJ, USA) and cRNAs made as above. We injected defolliculated stage V and VI Xenopus laevis oocytes (Xenoocyte, Dexter, MI, USA) with KCNQ cRNAs (2–10 ng) and incubated the oocytes at 16 °C in ND96 oocyte storage solution containing penicillin and streptomycin, with daily washing, for 2–4 days prior to two-electrode voltage-clamp (TEVC) recording.
We placed oocytes in a small-volume oocyte bath (Warner) and viewed them with a dissection microscope for cellular electrophysiology. We sourced chemicals from Sigma-Aldrich (St. Louis, MO, USA) and Combi-Blocks (San Diego, CA, USA). We studied effects of Salvia rosmarinus extracts and of compounds, solubilized directly in bath solution (in mM): 96 NaCl, 4 KCl, 1 MgCl2, 1 CaCl2, 10 HEPES (pH 7.6). We introduced extracts or compounds into the oocyte recording bath by gravity perfusion at a constant flow of 1 ml per minute for 3 min prior to recording. Pipettes were of 1-2 MΩ resistance when filled with 3 M KCl. […] We analyzed data using Clampfit (Molecular Devices) and Graphpad Prism software (GraphPad, San Diego, CA, USA), stating values as mean ± SEM. We plotted raw or normalized tail currents versus prepulse voltage and fitted with a single Boltzmann function:1 g=(A1−A2)/1+exp[V1/2−V/Vs]y+A2 where g is the normalized tail conductance, A1 is the initial value at -∞, A2 is the final value at +∞, V1/2 is the half-maximal voltage of activation and Vs the slope factor. We fitted activation and deactivation kinetics with single exponential functions.

KCNQ3* (KCNQ3-A315T) = KCNQ3* (KCNQ3-A315T) (Homo sapiens, UniProt O43525, A315T); experiment: TEVC of KCNQ3* homomers expressed in Xenopus laevis oocytes; type: cell-based; conditions: for Slope / V0.5 Normalized tail current / shift in V0.5act / V0.5 non-normalized tail current: 100 µM
[1] = test system: voltage-gated calcium channel, Cav3.2; set-up: method as in PMID 29073181; conditions: cited from earlier work
KCNQ3/5 = test system: KCNQ3/5; set-up: method as in PMID 11159685; conditions: cited from earlier work
KCNQ2/3 channels = test system: KCNQ2/3 channels; set-up: method as in PMID 35459955; conditions: cited from earlier work

KCNQ3* (KCNQ3-A315T), sequence (O43525 whole entry A315T): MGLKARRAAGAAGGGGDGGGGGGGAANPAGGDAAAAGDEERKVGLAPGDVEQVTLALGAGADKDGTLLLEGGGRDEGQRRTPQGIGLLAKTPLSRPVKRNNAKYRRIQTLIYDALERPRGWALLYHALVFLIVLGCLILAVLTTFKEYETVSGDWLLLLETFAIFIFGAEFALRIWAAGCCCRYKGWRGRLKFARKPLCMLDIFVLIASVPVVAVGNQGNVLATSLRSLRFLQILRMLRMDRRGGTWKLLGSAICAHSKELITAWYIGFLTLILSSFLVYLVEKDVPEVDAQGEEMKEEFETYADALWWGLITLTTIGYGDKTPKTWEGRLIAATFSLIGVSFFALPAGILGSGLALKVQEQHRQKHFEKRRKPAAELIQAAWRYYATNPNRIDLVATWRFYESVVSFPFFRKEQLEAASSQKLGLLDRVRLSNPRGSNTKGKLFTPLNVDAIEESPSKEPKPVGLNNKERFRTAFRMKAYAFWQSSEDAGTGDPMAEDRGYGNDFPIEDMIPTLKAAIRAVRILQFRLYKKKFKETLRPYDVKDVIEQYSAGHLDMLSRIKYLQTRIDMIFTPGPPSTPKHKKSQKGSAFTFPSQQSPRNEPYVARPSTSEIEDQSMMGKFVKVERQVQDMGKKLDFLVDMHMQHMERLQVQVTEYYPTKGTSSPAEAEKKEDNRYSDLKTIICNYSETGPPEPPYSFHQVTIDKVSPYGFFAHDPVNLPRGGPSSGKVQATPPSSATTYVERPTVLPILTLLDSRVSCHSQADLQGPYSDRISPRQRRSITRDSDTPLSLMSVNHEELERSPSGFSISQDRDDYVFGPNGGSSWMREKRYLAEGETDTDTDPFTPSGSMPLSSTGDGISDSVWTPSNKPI

Row | SMILES | Slope (KCNQ2/3) | V0.5 Normalized tail current (KCNQ2/3) | Slope (KCNQ3* (KCNQ3-A315T)) | V0.5 Normalized tail current (KCNQ3* (KCNQ3-A315T)) | V0.5 non-normalized tail current (KCNQ3* (KCNQ3-A315T)) | also measured
1 | CC(C)c1cc2c(cc1O)C1(C(=O)O)CCCC(C)(C)C1CC2 (stereo not drawn) [Pisiferic acid, pisiferic acid] | 7.44 ± 0.55 mV | -42.05 ± 0.63 mV | 4.89 ± 0.45 mV | -51.70 ± 0.51 mV | – | shift in V0.5act (KCNQ3* (KCNQ3-A315T)): only weakly negative-shifted
2 | O=C(O)[C@]1(O)C[C@@H](O)[C@@H](O)[C@H](O)C1 [Quinic acid, quinic acid] | 4.07 ± 0.85 mV | -47.87 ± 0.94 mV | 3.96 ± 0.88 mV | -53.04 ± 1.09 mV | -51.87 ± 2.53 mV | V0.5 non-normalized tail current (KCNQ2/3): -45.78 ± 1.64 mV; shift in V0.5act (KCNQ3* (KCNQ3-A315T)): ~ −10 mV
3 | O=C(/C=C/c1ccc(O)c(O)c1)O[C@H](Cc1ccc(O)c(O)c1)C(=O)O [Rosmarinic acid] | – | – | 4.36 ± 0.60 mV | -49.64 ± 0.84 mV | -50.09 ± 3.47 mV | IC50 [1]: 49.9 µM
4 | COc1cc(C(=O)O)cc(OC)c1O [Syringic acid] | 5.13 ± 0.75 mV | -47.76 ± 0.91 mV | 4.92 ± 1.03 mV | -49.16 ± 1.21 mV | -51.58 ± 5.36 mV | V0.5 non-normalized tail current (KCNQ2/3): -44.21 ± 2.07 mV
5 | C[C@H]1[C@H](C)CC[C@]2(C(=O)O)CC[C@]3(C)C(=CC[C@@H]4[C@@]5(C)CC[C@H](O)C(C)(C)[C@@H]5CC[C@]43C)[C@H]12 [Ursolic acid] | – | – | 4.49 ± 0.53 mV | – | – | –
6 | CCOC(=O)Nc1ccc(NCc2ccc(F)cc2)cc1N [retigabine] | – | – | – | – | – | shift in V0.5 of KCNQ3/5 activation (KCNQ3/5; 30 µM): −31.8 mV; EC50 (KCNQ3/5): 1.4 µM
7 | Oc1cc(Cl)ccc1Oc1ccc(Cl)cc1Cl [triclosan] | – | – | – | – | – | EC50 (KCNQ2/3 channels): 32 µM
8 | COC[C@H]1OC(=O)c2coc3c2[C@@]1(C)C1=C(C3=O)[C@@H]2CCC(=O)[C@@]2(C)C[C@H]1OC(C)=O [wortmannin, reference compound] | – | – | – | – | – | reduction of KCNQ3* current magnitude (KCNQ3* (KCNQ3-A315T); wortmannin pretreatment to reduce PIP2): ~ fivefold
